Reference: the supplement of paper PMC6045584
± gives the standard deviation of the averaged measurements.

Legend:
ERLOTINIB = compound: C#Cc1cccc(Nc2ncnc3cc(OCCOC)c(OCCOC)cc23)c1 [ERLOTINIB]; assay: surviving fraction relative to DMSO-only wells; higher = less growth inhibition; conditions: exposure time: 5 days
How it was run: (§1)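 Viability was determined by CellTiter-Glo luminescence, expressed as surviving fraction normalised to the median of DMSO-only wells. The cells were log-phase tumour cell lines seeded at 250–500 per well in 384-well plates and, after 24 hours, exposed continuously for five days to inhibitors at 0.5, 1, 5, 10, 50, 100, 500 and 1000 nM. Three screens per line were run, keeping only lines with replicate Pearson r >0.7 and median Z' >0.3.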

ETOPOSIDE = compound: COc1cc([C@@H]2c3cc4c(cc3[C@@H](O[C@@H]3O[C@@H]5CO[C@@H](C)O[C@H]5[C@H](O)[C@H]3O)[C@H]3COC(=O)[C@H]23)OCO4)cc(OC)c1O [ETOPOSIDE]; assay: as above; conditions: exposure time: 5 days
How it was run: as §1

| Test System | surviving fraction (ERLOTINIB; 0.5 nM) | surviving fraction (ERLOTINIB; 1 nM) | surviving fraction (ERLOTINIB; 5 nM) | surviving fraction (ERLOTINIB; 10 nM) | surviving fraction (ERLOTINIB; 50 nM) | surviving fraction (ERLOTINIB; 100 nM) | surviving fraction (ERLOTINIB; 1000 nM) | surviving fraction (ETOPOSIDE; 0.5 nM) | surviving fraction (ETOPOSIDE; 1 nM) | surviving fraction (ETOPOSIDE; 5 nM) | surviving fraction (ETOPOSIDE; 10 nM) | surviving fraction (ETOPOSIDE; 50 nM) | surviving fraction (ETOPOSIDE; 100 nM) | surviving fraction (ETOPOSIDE; 500 nM) | surviving fraction (ETOPOSIDE; 1000 nM) | surviving fraction (ERLOTINIB; 500 nM) |
| --- | --- | --- | --- | --- | --- | --- | --- | --- | --- | --- | --- | --- | --- | --- | --- | --- |
| MDAMB453 BREAST | 1.11 ± 0.065 | 1.05 ± 0.029 | 1.11 ± 0.057 | 1.088 ± 0.0092 | 1.09 ± 0.065 | 1.06 ± 0.022 | 1.01 ± 0.026 | 1.07 ± 0.098 | 1.13 ± 0.14 | 1.13 ± 0.057 | 1.13 ± 0.07 | 1.16 ± 0.046 | 1.15 ± 0.076 | 1.14 ± 0.12 | 0.984 ± 0.078 | – |
| MDAMB468 BREAST | 1.06 ± 0.052 | 0.995 ± 0.038 | 1.14 ± 0.072 | 1.05 ± 0.035 | 1.15 ± 0.12 | 1.105 ± 0.011 | 0.748 ± 0.04 | 1.1 ± 0.11 | 1.06 ± 0.013 | 1.14 ± 0.065 | 1.13 ± 0.038 | 1.15 ± 0.12 | 1.25 ± 0.089 | 1.09 ± 0.072 | 0.937 ± 0.19 | 0.902 ± 0.06 |
| MFM223 BREAST | 1.44 ± 0.48 | 1.5 ± 0.64 | 1.49 ± 0.59 | 1.48 ± 0.48 | 1.16 ± 0.13 | 1.2 ± 0.039 | 1.16 ± 0.033 | 1.1 ± 0.056 | 1.19 ± 0.14 | 1.17 ± 0.12 | 1.07 ± 0.038 | 1.12 ± 0.035 | 1.06 ± 0.035 | 0.721 ± 0.032 | 0.729 ± 0.052 | 1.22 ± 0.052 |
| MG63 BONE | – | 1.08 ± 0.041 | 1.12 ± 0.014 | 1.1 ± 0.019 | 1.14 ± 0.045 | 1.1 ± 0.047 | – | 1.01 ± 0.033 | 0.998 ± 0.038 | 1.05 ± 0.059 | 1.06 ± 0.036 | 1.06 ± 0.052 | 1.05 ± 0.066 | 0.778 ± 0.043 | 0.265 ± 0.016 | 1.07 ± 0.066 |
| MHM BONE | 1.02 ± 0.036 | 1.03 ± 0.035 | – | – | 1.04 ± 0.016 | 1.064 ± 0.001 | 0.998 ± 0.03 | 0.994 ± 0.022 | 0.999 ± 0.011 | 1.01 ± 0.021 | 1.001 ± 0.007 | 1.02 ± 0.016 | 1.02 ± 0.045 | 0.894 ± 0.018 | 0.784 ± 0.024 | 1.038 ± 0.01 |
| NCIH441 LUNG | 1.2 ± 0.086 | 1.16 ± 0.14 | 1.09 ± 0.083 | 1.08 ± 0.12 | 1.08 ± 0.067 | 1.11 ± 0.1 | 1.17 ± 0.12 | 1.03 ± 0.15 | 1.05 ± 0.037 | 1 ± 0.04 | 0.974 ± 0.011 | 1.01 ± 0.053 | 0.829 ± 0.05 | 0.565 ± 0.035 | 0.524 ± 0.016 | 0.992 ± 0.086 |
| NOS1 BONE | 1.22 ± 0.035 | – | 1.24 ± 0.15 | 1.18 ± 0.075 | 1.33 ± 0.045 | 1.14 ± 0.094 | 0.561 ± 0.011 | 1.11 ± 0.12 | 1.01 ± 0.099 | 1.33 ± 0.24 | 1.19 ± 0.12 | 0.977 ± 0.08 | 0.91 ± 0.24 | 0.601 ± 0.075 | 0.623 ± 0.074 | 0.827 ± 0.16 |
| NY BONE | 1.01 ± 0.019 | 0.963 ± 0.029 | – | 1.05 ± 0.037 | – | – | – | 1.01 ± 0.033 | 1.01 ± 0.035 | 1.07 ± 0.032 | 1.09 ± 0.066 | 1.07 ± 0.05 | 1.06 ± 0.03 | 0.797 ± 0.033 | 0.592 ± 0.021 | 0.983 ± 0.01 |
| OS25HAL BONE | 0.997 ± 0.016 | 1.04 ± 0.048 | 1.02 ± 0.024 | – | 1.09 ± 0.063 | 1.17 ± 0.043 | 1 ± 0.035 | 1 ± 0.018 | 0.996 ± 0.018 | 1.01 ± 0.015 | 1.01 ± 0.0071 | 1.07 ± 0.041 | 1.04 ± 0.019 | 0.497 ± 0.022 | 0.231 ± 0.024 | 1.09 ± 0.027 |
| OSHN BONE | 1.07 ± 0.029 | 1.1 ± 0.016 | 1.1 ± 0.026 | 1.07 ± 0.029 | – | 1.163 ± 0.0072 | 1.1173 ± 0.0011 | 1.05 ± 0.025 | 1.05 ± 0.042 | 1.06 ± 0.046 | 1.06 ± 0.041 | 1.07 ± 0.042 | 1.07 ± 0.048 | 0.452 ± 0.042 | 0.174 ± 0.0076 | 1.161 ± 0.001 |
| PCI30 HEADNECK | 1.05 ± 0.12 | – | 1.12 ± 0.066 | 1.07 ± 0.078 | – | 0.951 ± 0.1 | 0.508 ± 0.029 | 0.943 ± 0.1 | 1.03 ± 0.025 | 1.02 ± 0.09 | 1 ± 0.041 | 1.07 ± 0.05 | 1.01 ± 0.053 | 0.579 ± 0.063 | 0.424 ± 0.031 | 0.538 ± 0.036 |
| RDES SOFT TISSUE | 1.21 ± 0.057 | 1.28 ± 0.14 | 1.12 ± 0.18 | 1.27 ± 0.015 | – | 1.28 ± 0.1 | 1.32 ± 0.1 | 1.08 ± 0.022 | 1.16 ± 0.21 | 1.1 ± 0.11 | 1.11 ± 0.071 | 0.854 ± 0.21 | 1.15 ± 0.3 | 0.232 ± 0.03 | 0.0647 ± 0.0021 | 1.24 ± 0.025 |
| S68 BREAST | 1.05 ± 0.32 | 1.07 ± 0.37 | 0.808 ± 0.13 | 1.15 ± 0.036 | 1.14 ± 0.25 | 1.11 ± 0.3 | 0.564 ± 0.03 | 0.939 ± 0.27 | 1.1 ± 0.18 | 1.01 ± 0.072 | 1.44 ± 0.12 | 1.07 ± 0.22 | 0.776 ± 0.095 | 0.369 ± 0.016 | 0.297 ± 0.024 | 0.743 ± 0.079 |
| SAOS2 BONE | 1.22 ± 0.066 | 1.2 ± 0.044 | 1.18 ± 0.095 | 1.24 ± 0.035 | 1.26 ± 0.12 | 1.23 ± 0.051 | 1.05 ± 0.075 | 1.03 ± 0.027 | 1.06 ± 0.028 | 1.17 ± 0.02 | 1.16 ± 0.049 | 1.13 ± 0.035 | 1.147 ± 0.011 | 0.783 ± 0.04 | 0.439 ± 0.022 | 1.09 ± 0.094 |
| SCC36 HEADNECK | – | 0.929 ± 0.089 | 1.06 ± 0.032 | 1.07 ± 0.057 | – | 0.82 ± 0.033 | 0.397 ± 0.038 | 1.13 ± 0.12 | 1.05 ± 0.18 | 1.1 ± 0.12 | 1.08 ± 0.1 | 1.02 ± 0.052 | 1.15 ± 0.086 | 0.668 ± 0.035 | 0.512 ± 0.0061 | 0.548 ± 0.059 |
| SCC47 HEADNECK | 1.13 ± 0.079 | 1.11 ± 0.015 | 1.231 ± 0.0078 | 1.17 ± 0.092 | 1.15 ± 0.051 | 1.07 ± 0.021 | 0.724 ± 0.037 | 1.04 ± 0.11 | 1.05 ± 0.039 | 1.02 ± 0.025 | 1.08 ± 0.079 | 1.11 ± 0.071 | 1.06 ± 0.084 | 0.799 ± 0.07 | 0.575 ± 0.027 | 0.822 ± 0.052 |
| SCC90 HEADNECK | 1.1 ± 0.091 | 1.1 ± 0.011 | 1.13 ± 0.038 | 1 ± 0.036 | 0.94 ± 0.11 | 0.82 ± 0.086 | 0.534 ± 0.057 | 1.02 ± 0.099 | 1.11 ± 0.12 | 1.18 ± 0.092 | 1.2 ± 0.2 | 1.22 ± 0.15 | 1.13 ± 0.13 | 0.999 ± 0.18 | 0.878 ± 0.21 | 0.585 ± 0.049 |
